Drawing on US20130156845A1, “LIPID FORMULATED SINGLE STRANDED RNA” (ALNYLAM PHARMACEUTICALS, INC., priority 2010, published 2013), this text covers T1/2 full length, EC50 and IC50 for one substance.

Like-named read-outs stand apart in the source and are kept apart here. e = 2'-O-(2-methoxyethyl) (MOE); {P} = phosphate; f = 2'-fluoro

Data set [1] can be described thus: Phosphate stability in mouse serum (Example 68).
Method: Single-stranded oligomeric compounds were tested for stability in mouse serum.
The test system of data set [2] is PTEN. Nature of the data set: PTEN mRNA reduction in HeLa cells, dose response (Example 59). It is filed as cell-based, human. The settings on record: percent inhibition of PTEN mRNA, real-time PCR normalized to RIBOGREEN, 0.20-50 nM. The protocol:
When cells reached 65-75% confluency, they are treated with one or more oligomeric compounds. The oligomeric compound is mixed with LIPOFECTIN™ Invitrogen Life Technologies, Carlsbad, Calif.) in Opti-MEM™-1 reduced serum medium (Invitrogen Life Technologies, Carlsbad, Calif.) to achieve the desired concentration of the oligomeric compound(s) and a LIPOFECTIN™ concentration of 2.5 or 3 μg/mL per 100 nM oligomeric compound(s). This transfection mixture is incubated at room temperature for approximately 0.5 hours. For cells grown in 96-well plates, wells are washed once with 100 μL OPTI-MEM™-1 and then treated with 130 μL of the transfection mixture. Cells grown in 24-well plates or other standard tissue culture plates are treated similarly, using appropriate volumes of medium and oligomeric compound(s). […]
Quantitation of target mRNA levels is accomplished by real-time quantitative PCR using the ABI PRISM™ 7600, 7700, or 7900 Sequence Detection System (PE-Applied Biosystems, Foster City, Calif.) according to manufacturer's instructions. This is a closed-tube, non-gel-based, fluorescence detection system which allows high-throughput quantitation of polymerase chain reaction (PCR) products in real-time. As opposed to standard PCR in which amplification products are quantitated after the PCR is completed, products in real-time quantitative PCR are quantitated as they accumulate. […]
Background: Quantitative PCR measures a nucleic acid by following its amplification.

For data set [3], the system named is PTEN. Nature of the data set: PTEN mRNA reduction in HeLa cells, dose response (Example 64). Type of data set: cell-based, human. The conditions noted are these: real-time PCR, 1.56-50 nM. As for the experimental part: A dose response experiment was performed targeting PTEN in human HeLa cells to determine the effects of placement of sugar and internucleoside linkages within ssRNAs. More specifically, the modified ssRNAs were tested for their ability to reduce PTEN mRNA in cultured cells. The modified ssRNAs are shown below, and contain 2′-OMe and 2′-fluoro modified nucleosides, two 2′-O-MOE modified nucleosides at the 3′-terminus, and seven phosphorothioate linkages at the 3′-terminus of the ssRNAs.
HeLa cells were treated with ssRNAs shown below at concentrations of 1.56 nM, 3.13 nM, 6.25 nM, 12.5 nM, […] and 50 nM using methods described herein. Levels of mRNA were determined using real-time PCR methods as described herein. The IC50 for each ssRNA was determined.

A further data set has as its system human PTEN. Nature of the data set: PTEN expression in HeLa cells, ssRNAs vs siRNAs (Example 62). It is filed as cell-based. The method, boiled down: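 HeLa cells treated with antisense strands either as single-stranded RNAs or duplexed with a common sense strand. PTEN mRNA levels normalized; IC50 from linear regression of normalized mRNA against log concentration.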

Data set [4] has as its system PTEN. The data set can be described thus: PTEN mRNA reduction in HeLa cells, dose response (Example 72). It is filed as cell-based, human. The settings on record: percent inhibition of PTEN mRNA, 0.167-50 nM. As for the experimental part: In accordance with the present disclosure, oligomeric compounds were synthesized and tested for their ability to reduce PTEN expression over a range of doses. Human HeLa cells were treated with the following oligomeric compounds. A dose comparison was evaluated with dose concentrations of 0.167, 0.5, 1.5, 5, 15 and 50 nM using methods described herein. Expression levels of PTEN were determined using real-time PCR and normalized to RIBOGREEN™ using methods described herein. The percent inhibition of PTEN mRNA was determined and the resulting dose-response curves were used to determine the IC50. The IC50s are listed below.

In general, EC50 refers to the concentration giving half of the maximal effect. In general, IC50 refers to the concentration that inhibits the measured activity by half. With “P-UfUfGfUfCfUfCfUfGfGfUfCfCfUfUfAfCfUfUfAeAe (antisense UUGUCUCUGGUCCUUACUUAA; sugars from the 5' end f19 e2, 5' {P}, backbone not given here) [ISIS 404320, modified ssRNA targeting PTEN]”, the T1/2 full length is 24 min in data set [1] (four compounds tested separately, second table) and 24 min in data set [1] (full compound with intact phosphorous moiety, first table). For the same substance, the EC50 in the data set with PTEN [2] stood at 13.2 nM; in the data set with human PTEN (antisense strand duplexed with sense strand ISIS 341401, PTEN mRNA, read-out: EC50 (nM) siRNA), 0.5 nM; with human PTEN (single stranded antisense compound, PTEN mRNA, read-out: EC50 (nM) ssRNA), 5 nM. The figures for the IC50 in the data set on PTEN [3] and in the data set with PTEN [4] were 5.8 nM and 7.6 nM, respectively.
